Experiments:
[1] = test system: 5-HT1A serotonin receptor; assay: Analysis of 5-HT receptor trafficking in rat hippocampus and hypothalamus sections (Western blotting of cellular membrane and cytoplasm fractions); assay type: cell-based; conditions: DCP-LA 100 nM
GSK-3β = assay: Phosphorylation of GSK-3β at Ser9 in hypothalamus of mouse under or not under restraint stress (Western blotting); assay type: in vivo; conditions: total 11 days, FIG. 6
[2] = test system: mouse under a restraint stress; assay: Forced swimming test after restraint stress (depression model); assay type: in vivo; conditions: restraint-stressed mouse, 0.5, 0.75, 1.0, 5.0 mg/kg orally once per day, total 11 days; FIG. 3
Excerpt: At present, in the study of depression using the behavior of an experiment animal, the efficacy of antidepressant and reaction to stress, which are the both sides of depression, are mainly utilized. In a depression model, a method for inducing depression in an animal by imposing a stress such as solitude, electric shock, forced immersion in water, peripheral environment, temperature change and the like is mainly used. In this Experimental Example, a restraint stress animal model was used. A symptom corresponding to depression was induced by loading a stress by enclosing an experiment animal in a narrow space inhibiting movement, and whether an antidepressive effect was observed when a test compound was administered was examined. Male C57BL/6J mouse at 8-week-old was purchased from Japan SLC Inc. (Shizuoka. Japan). The mouse was enclosed in a 11.5 cm plastic cylinder (diameter 2.7 cm) for 3 hr per day, which was performed for 4 consecutive days to impart a stress.
A forced swimming test is a behavioral test used for screening for an antidepressive effect of a compound. Also in this Experimental Example, a forced swimming test was performed according to a previous report after a restraint stress (Porsolt R D. Le Pichon M, Jalfre M. Depression: a new animal model sensitive, to antidepressant treatments. Nature 1977; 266:730-732.). […]

[3] = test system: 5-HT1A serotonin receptor; assay: 5-HT1A serotonin receptor on cellular membrane in hippocampus and hypothalamus of restraint-stressed mouse after forced swimming test (Western blotting); assay type: in vivo; conditions: 1 mg/kg orally once per day, total 11 days, hippocampus, hypothalamus, FIG. 4

`CCCCCC1CC1CC1CC1CCCCCCCC(=O)O` (stereo not drawn) [DCP-LA, 8-[2-(2-Pentyl-cyclopropylmethyl)-cyclopropyl]-octanoic acid] was tested, and the “expression of 5-HT1A serotonin receptor on the cellular membrane (ratio of cellular membrane to whole cells)” value ([1]; 20 min, rat hippocampus and hypothalamus sections, compared with 5-HT2A serotonin receptor, FIG. 1) was “selectively increased”, the “promoting action on cellular membrane trafficking of 5-HT1A serotonin receptor in the presence of inhibitors” value ([1]; rat hypothalamus section, GF109203X 100 nM, BoTX-A 0.1 U/ml, KN-93 3 μM, FIG. 2) was “significantly suppressed by BoTX and KN” and the “phosphorylation of GSK-3β (Ser9)” value (GSK-3β; irrespective of the presence or absence of a restraint stress, mouse hypothalamus, 1 mg/kg orally) was “promote phosphorylation”. For the same molecule, the “stress-induced suppression of phosphorylation of GSK-3β (Ser9)” value (GSK-3β; mouse under restraint stress, hypothalamus, 1 mg/kg orally once per day) was “improves suppression of the phosphorylation”, the “immobility time in forced swimming test” value [2] was “immobility time decreasing effect in a dose-dependent manner” and the “stress-induced decrease in 5-HT1A serotonin receptor on the cellular membrane” value [3] was “recovered”.

Source: patent US20160089352A1, “CELL MEMBRANE TRANSPORT PROMOTER FOR SELECTIVE 5-HT1A SEROTONIN RECEPTORS” (NISHIZAKI BIOINFORMATION RESEARCH INSTITUTE, priority 2013, published 2016)
